Laboratory results as given in patent US5910479A, “Method for the treatment of Streptococcus pneumoniae infection” (priority 1996, dated 1999).
Converted amounts (≈) assume the structure as drawn.

Legend:
S. pneumoniae = conditions: strain of S. pneumoniae used; reported by Goldstein et al.; cited from earlier work
[1] = system: Streptococcus pneumoniae Felton; experiment: Mouse i.p. infection model (septicemia), survival; format: in vivo; conditions: mice; for Survivors (%) / Survivors/total: twice
Description: Mouse i.p. infection model. Staphylococcus aureus Smith was grown in veal infusion broth and each mouse was infected intraperitoneally with 10^6 colony-forming units (CFU), diluted in broth containing 5% (w/v) Difco bacteriological mucin. Streptococcus pneumoniae Felton strain was grown in Difco Brain Heart Infusion broth (BHI) and each mouse was infected intraperitoneally with 10^3 CFU, diluted in BHI. Mice were divided into groups of 5. […] Other groups of mice received different dosages of nisin. Nisin was administered either intravenously (via the tail vein in. 0.1 ml of 5% dextrose for injection) or subcutaneously (in 0.2 ml). Two injections were given to each mouse, the first within 10 minutes after infection and the second after 5 hours. […] Different dosages of vancomycin or penicillin were administered i.v. in 0.1 ml of 5% glucose for injection.

SMILES	MIC (S. pneumoniae) [µg/mL]	Efficacy compared with the other agents (in words) ([1]; i.v.)	Survivors (%) ([1]; i.v., 0.5 mg/kg/dose)	Survivors/total ([1]; i.v., 0.5 mg/kg/dose)	Survivors (%) ([1]; i.v., 1 mg/kg/dose)	Survivors/total ([1]; i.v., 1 mg/kg/dose)	Survivors (%) ([1]; i.v., 2 mg/kg/dose)	Survivors/total ([1]; i.v., 2 mg/kg/dose)	Survivors (%) ([1]; i.v., 4 mg/kg/dose)	Survivors/total ([1]; i.v., 4 mg/kg/dose)	Survivors (%) ([1]; i.v., 8 mg/kg/dose)	Survivors/total ([1]; i.v., 8 mg/kg/dose)	Survivors (%) ([1]; i.v., 16 mg/kg/dose)	Survivors/total ([1]; i.v., 16 mg/kg/dose)	Survivors (%) ([1]; i.v., 32 mg/kg/dose)	Survivors/total ([1]; i.v., 32 mg/kg/dose)	Survivors (%) ([1]; s.c., 2 mg/kg/dose)	Survivors/total ([1]; s.c., 2 mg/kg/dose)	Survivors (%) ([1]; s.c., 4 mg/kg/dose)	Survivors/total ([1]; s.c., 4 mg/kg/dose)
CC1(C)S[C@@H]2[C@H](NC(=O)Cc3ccccc3)C(=O)N2[C@H]1C(=O)O [penicillin]	0.016 (≈ 0.0478 µM)	less efficacious than nisin	0	0/5	20	1/5	20	1/5	60	3/5	20	1/5	80	4/5	–	–	–	–	–	–
CN[C@H](CC(C)C)C(=O)N[C@H]1C(=O)N[C@@H](CC(N)=O)C(=O)N[C@H]2C(=O)N[C@H]3C(=O)N[C@H](C(=O)N[C@H](C(=O)O)c4cc(O)cc(O)c4-c4cc3ccc4O)[C@H](O)c3ccc(c(Cl)c3)Oc3cc2cc(c3O[C@@H]2O[C@H](CO)[C@@H](O)[C@H](O)[C@H]2O[C@H]2C[C@](C)(N)[C@H](O)[C@H](C)O2)Oc2ccc(cc2Cl)[C@H]1O [vancomycin]	–	less efficacious than nisin	–	–	40	2/5	60	3/5	80	4/5	100	5/5	100	5/5	100	5/5	60	3/5	60	3/5
